pKi: −log10 of the molar value.
Biological target: T1, human GnRH receptor (Homo sapiens, UniProt P30968)
T1 construct: expressed in transfected cells; host or cells: RBL cells, stably transfected (in general)
T1 sequence (P30968 1-328): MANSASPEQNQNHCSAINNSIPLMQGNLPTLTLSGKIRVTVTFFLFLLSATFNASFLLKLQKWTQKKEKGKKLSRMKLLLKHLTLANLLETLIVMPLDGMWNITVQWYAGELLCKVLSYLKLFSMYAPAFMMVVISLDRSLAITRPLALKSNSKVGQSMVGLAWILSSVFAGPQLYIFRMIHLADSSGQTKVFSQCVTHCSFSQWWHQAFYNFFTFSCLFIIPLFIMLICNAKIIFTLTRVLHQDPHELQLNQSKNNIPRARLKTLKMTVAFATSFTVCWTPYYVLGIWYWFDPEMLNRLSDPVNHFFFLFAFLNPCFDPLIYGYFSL
Experiment: Peptide competition radioligand binding displacement assay, human GnRH receptor membranes
Settings: one or more of the peptide competition human receptor binding assays
Method in brief: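 Membranes for radioligand binding were prepared from RBL cells stably expressing human GnRH receptor, which were lysed by nitrogen cavitation at 900 psi, 4° C. Membranes from HEK293 cells stably transfected with human receptor were held in 10 mM HEPES pH 7.5, 150 mM NaCl, 0.1% BSA. Transiently transfected COS-7 cells were used for other species.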

Row | SMILES | pKi
1 | CN(C(=O)c1ccc(Cl)c(-c2cnc(C(F)(F)F)cc2C#N)c1)c1ccccc1OCC(C)(C)C(=O)O [52-1, 3-(2-{[4-Chloro-3-(4-cyano-6-trifluoromethyl-pyridin-3-yl)-benzoyl]-methyl-amino}-phenoxy)-2,2-dimethyl-propionic acid] | ≥ 7.00
2 | CN(C(=O)c1ccc(Cl)c(-c2cnc(C(F)(F)F)cc2C#N)c1)c1ccccc1OCCC(=O)NCCN [53-1, N-{2-[2-(2-Amino-ethylcarbamoyl)-ethoxy]-phenyl}-4-chloro-3-(4-cyano-6-trifluoromethyl-pyridin-3-yl)-N-methylbenzamide] | ≥ 7.00
3 | CN(C(=O)c1ccc(Cl)c(-c2cnc(C(F)(F)F)cc2C#N)c1)c1ccccc1OCCC(=O)N1CCNCC1 [53-2, 4-Chloro-3-(4-cyano-6-trifluoromethyl-pyridin-3-yl)-N-methyl-N-[2-(3-oxo-3-piperazin-1-yl-propoxy)-phenyl]-benzamide] | ≥ 7.00

— US8481738B2, “Gonadotropin-releasing hormone receptor antagonists and methods relating thereto” (Neurocrine Biosciences, Inc., priority 2007, dated 2013)
